“Also recorded” adds a separate entry of the source. Read-outs that look alike come from different tables or passages of the source.

The test system of one data set is Sprague Dawley rats. The data set can be described thus: Forced swim test (FST) in rats. The format is in vivo, rat. Conditions: for Time Immobile: rat FST, 10% DMSO in saline; for Time Immobile / effect on immobility in FST: 23.5 hours after a single dose; for effect on immobility in FST: rat. As to the method: Compound 1 induced antidepressant-like effects in the forced swim test (FST) in rats with a 23.5-h pre-treatment time (FIG. 2).
Animals. Male Sprague Dawley rats, aged 9-10 weeks, were used in this experiment. Animals were housed in groups of 2 under controlled temperature (22±3° C.) and relative humidity (30-70%) conditions, with 12-hour light/dark cycles, and with ad libitum food and water. This study was carried out in strict accordance with the requirements of the Committee for the Purpose of Control and Supervision of Experiments on Animals (CPCSEA), India. All efforts were made to minimize suffering.
Forced Swim Test (FST). […] Rats were handled for about 2 min daily for the 5 days prior to the beginning of the experimental procedure. On the first day of the experiment (i.e., Day 0), post randomization, training swim sessions (Swim 1) were conducted between 12:00 and 18:00 h with all animals by placing rats in individual glass cylinders (46 cm tall×20 cm in diameter) containing 23-25° C. water 30 cm deep for 15 minutes. At the conclusion of Swim 1, animals were dried with paper towels, placed in heated drying cages for 15 minutes, and then returned to their home cages. Animals were then administered the appropriate drug or vehicle treatment(s), as described above. For clarity, a compound administration time of 23.5 h before Swim 2 means 0.5 h after the start of Swim 1 and 0.25 h after the completion of Swim 1 (i.e., immediately after return to the home cage). On Day 1 (i.e., 24 h after start of Swim 1), animals performed the test swim (Swim 2) for a period of 5 min but otherwise under the same conditions as Swim 1. During all swim sessions, the water was changed between each animal.
Behavioral scoring was conducted by observers who were blind to the treatment groups. Animals were continuously observed during Swim 2 and the total time spent engaging in the following behaviors was recorded: immobile, swimming, and climbing. A rat was judged to be immobile when it remained floating in the water without struggling and was making only those movements necessary to keep its head above water. A rat was judged to be swimming when it made active swimming motions, more than necessary to merely maintain its head above water (e.g., moving around in the cylinder). A rat was judged to be climbing when it made active movements with its forepaws in and out of the water, usually directed against the walls.
Statistical Analysis. The data points shown represent the mean±standard error of the mean (SEM). Analysis was performed using GraphPad Prism 6. Comparisons between groups were performed using the one-way analysis of variance (ANOVA), followed by Dunnett's test for comparisons to vehicle.
Additional disclosed compounds were tested in the forced swim test (FST) in rats according to the procedure described in Example 58 (compounds 18 and 19 administered in 10% DMSO in saline).

A further data set relates to C57BL/6 mice. Briefly: Marble burying test (MBT) in mice. The format is in vivo, mouse. Conditions: 30-minute period, compared to vehicle, FIG. 3. As to the method:
Compound 1 produced an anxiolytic-like effect in the marble burying test (MBT) in C57BL/6 mice (FIG. 3).
Animals. Adult male C57BL/6 mice, aged 8-10 weeks (body weight 20-25 g) were used in these experiments. Animals were housed under controlled temperatures and 12-hour light/dark cycles (lights on between 07:00-19:00 h), with ad libitum food and water. This study was carried out in strict accordance with the requirements of the Committee for the Purpose of Control and Supervision of Experiments on Animals (CPCSEA), India. All efforts were made to minimize suffering.
Marble Burying Test (MBT). […] Mice were handled for about 2 min daily for the 3 days prior to the beginning of the experimental procedure. Twenty glass marbles (16 mm diameter) were placed with equal distances in a 5×4 pattern on a 5-cm layer of corn-cob bedding, with marbles at least 2 cm from the borders of the cage. The total number of marbles buried were counted in three 10-minute time bins (total 30 minutes). A marble was considered buried when it was >⅔ covered by bedding material.
Statistical Analysis. The data points shown are the mean±standard error of the mean (SEM). Analysis was performed using GraphPad Prism 6. Comparisons between groups were performed using the one-way analysis of variance (ANOVA), followed by Dunnett's test for comparisons to vehicle. […]

A further data set in a line: in vitro. The format is in vitro ADME, human. Particulars: human, microsomes, role: substrate, metabolite 83 formed in HLM, read-out: Metabolite Formation (percent formation of metabolite 83). The method, then: The ability of deuteration in compound 68 to attenuate formation of metabolite 83 compared to the same transformation of the non-deuterated compound 18 was also determined.
HLM Stability. Pooled HLM from adult male and female donors (Corning 452117) were used.

Turning to `CCN(CC)C(=O)[C@@H]1C=C2c3cccc4[nH]cc(c34)C[C@H]2N(Cc2ccc(OC)cc2)C1` [Compound 19, (6aR,9R)—N,N-diethyl-7-(4-methoxybenzyl)-4,6,6a,7,8,9-hexahydroindolo[4,3-fg]quinoline-9-carboxamide], the “Time Immobile” value in the data set on Sprague Dawley rats (0.1 mg/kg SC) is given as 76.4 s; with Sprague Dawley rats (0.32 mg/kg SC), 79.2 s; with Sprague Dawley rats (1 mg/kg SC) it was 96.0 s; in the data set with Sprague Dawley rats (3.2 mg/kg SC), 166.5 s. Also, the “effect on immobility in FST” value in the data set with Sprague Dawley rats is “maximal effects equivalent to hallucinogenic compounds and the positive control; also recorded: apparent therapeutic action of compound 19 decreased at higher doses”.

On to `CCCN1C[C@H](C(=O)N(CC)CC)C=C2c3cccc4[nH]cc(c34)C[C@H]21` [Compound 1, (6aR,9R)—N,N-diethyl-7-propyl-4,6,6a,7,8,9-hexahydroindolo[4,3-fg]quinoline-9-carboxamide], for which the “immobility time in FST” value in the data set with Sprague Dawley rats (highest dose, 23.5 h pre-treatment, relative to vehicle control, FIG. 2) is “reduced immobility time relative to vehicle control”. Moreover, the “number of marbles buried” value with C57BL/6 mice is “reduced the number of marbles buried in a 30-minute period compared to vehicle”.

In the case of `CCN(CC)C(=O)[C@@H]1C=C2c3cccc4[nH]cc(c34)C[C@H]2N(Cc2cccc(OC)c2)C1` [Compound 18, (6aR,9R)—N,N-diethyl-7-(3-methoxybenzyl)-4,6,6a,7,8,9-hexahydroindolo[4,3-fg]quinoline-9-carboxamide], the “Time Immobile” value with Sprague Dawley rats (0.1 mg/kg SC) amounted to 56.7 s; with Sprague Dawley rats (0.32 mg/kg SC), 61.2 s. The “effect on immobility in FST” value with Sprague Dawley rats was “maximal effects equivalent to hallucinogenic compounds and the positive control”. Further, the metabolised in the data set “in vitro” (T = 0) turned out to be 0.1%; in “in vitro” (T = 5), 3.4%; in “in vitro” (T = 15), 6.1%; in the data set “in vitro” (T = 30) it was 7.6%; in “in vitro” (T = 45), 8.1%; in “in vitro” (T = 60), 8.4%.
